“And” between values parts separate entries of the source, which are not always exact repeats. Equal values may be shown once. “Also recorded” adds a separate entry of the source. Read-outs that look alike come from different tables or passages of the source.
How the values were obtained:
[1] = set-up: method as in ref 29 = [29]; 29 U.S. Food and Drug Administration . Application Number: 211349Orig1s000; Multi‐Discipline Review. https://www.accessdata.fda.gov/drugsatfda_docs/nda/2018/211349Orig1s000MultidisciplineR.pdf . Publi; conditions: single 40‐mg tablet; cited from earlier work
[2] = set-up: method as in ref 23 = [23]; 23 U.S. Food and Drug Administration . Application Number: 207997Orig1s000; 207997Orig2s000. Clinical Pharmacology and Biopharmaceutics Review(s). Available at: https://www.accessdata.fda.gov/drugsatf; conditions: single 50‐mg dose, cited from earlier work
[3] = set-up: method as in PMID 19738123; conditions: uncoated tablet formulation; cited from earlier work
[4] = prior knowledge used for the study design and sampling duration; no reference given; cited from earlier work
[5] = set-up: method as in data on file, Daiichi Sankyo, Inc; conditions: subjects with AML; ref data on file, Daiichi Sankyo, Inc; cited from earlier work
[6] = BCS classification; no reference given; cited from earlier work
[7] = set-up: method as in data on file, Daiichi Sankyo, Inc; conditions: ref data on file, Daiichi Sankyo, Inc; cited from earlier work
cytochrome P450 3A = conditions: cited from earlier work
[8] = Safety assessments (AEs, ECG/QTcF, vital signs, laboratory tests) in the food-effect study; assay type: in vivo, human
Procedure: All randomized subjects who received quizartinib were included in the safety analysis population. Safety assessments included physical examinations, vital signs, 12‐lead ECGs, adverse event (AE) evaluations, and clinical laboratory tests. Hematology, chemistry, serology, and urinalysis tests were performed by a local laboratory. AEs and laboratory tests were graded and summarized based on National Cancer Institute Common Terminology Criteria for Adverse Events version 4.03 and assessed for severity, relation to study drugs, and clinical significance.

For `CCc1nc(C(N)=O)c(Nc2ccc(N3CCC(N4CCN(C)CC4)CC3)c(OC)c2)nc1NC1CCOCC1` [gilteritinib], the “decrease in AUC with a high‐fat meal vs the fasted state” value [1] is listed as less than 10%, the “decrease in Cmax with a high‐fat meal vs the fasted state” value [1] is listed as 26% and the “delay in median tmax with a high‐fat meal” value [1] is listed as 2 h.

For `CO[C@@H]1[C@H](N(C)C(=O)c2ccccc2)C[C@H]2O[C@]1(C)n1c3ccccc3c3c4c(c5c6ccccc6n2c5c31)C(=O)NC4` [midostaurin], the “increase in exposure with food” value ([2]; high‐fat meal (900–1000 calories, 50% fat content)) is given as 1.6 fold and the “increase in exposure with food” value ([2]; standard meal (450 calories, 25% fat content)) is given as 1.2 fold.

In the case of `CC1(COc2ccc3c(c2)ncn3-c2ccc3cccc(N4CCC(N)CC4)c3n2)COC1` [crenolanib], the “effect of food on interpatient variability of Cmax and AUCinf” value [3] is listed as “increased”, the “effect of food on terminal half‐life” value [3] is listed as “no effects” and the “effect of food on tmax” value [3] is listed as “delays”.

In the case of `CC(C)(C)c1cc(NC(=O)Nc2ccc(-c3cn4c(n3)sc3cc(OCCN5CCOCC5)ccc34)cc2)no1.Cl.Cl` [quizartinib, N‐(5‐tert‐butyl‐isoxazol‐3‐yl)‐N′‐{4‐[7‐(2‐morpholin‐4‐yl‐ethoxy)imidazo[2,1‐b][1,3]benzothiazol‐2‐yl]phenyl}urea dihydrochloride], the “terminal elimination half‐life (t1/2)” value [4] is listed as “approximately 100 hours”, the “effective half‐life” value [5] is listed as 73 h and the permeability [6] is listed as “low”. The solubility [6] was “low”, the Plasma protein binding [7] was greater than 99% and the “cytochrome P450 3A substrate status” value (cytochrome P450 3A) was “substrate”. For the same compound, the tolerability ([8]; 30‐mg single dose, fed and fasted healthy subjects) was “safe and well tolerated”, the “subjects with maximum QTcF ≤450 milliseconds” value ([8]; all subjects (N = 64)) was 64 (100%) n (%) and the “subjects with maximum change from baseline QTcF ≤30 milliseconds” value ([8]; all subjects (N = 64)) was 98.4%. For the same compound, the “Number of TEAEs” value ([8]; fasted (n = 34)) was 16, the “Number of treatment‐related AEs” value ([8]; fasted (n = 34)) was 6 and the “Subjects with a treatment‐related AE, n (%)” value ([8]; fasted (n = 34)) was 4 (11.8%) n (%) and 4 (11.8) n (%). The “Subjects with any TEAE by maximum severity: Mild, n (%)” value (“Subjects with any TEAE … Mild, n (%)” for short) ([8]; fasted (n = 34)) was 7 (20.6) n (%), the “Subjects with any TEAE by maximum severity: Moderate, n (%)” value (shortened to “Subjects with any TEAE … Moderate, n (%)”) ([8]; fasted (n = 34)) was 1 (2.9) n (%) and the “Subjects with any TEAE by maximum severity: Severe, n (%)” value (“Subjects with any TEAE … Severe, n (%)” below) ([8]; fasted (n = 34)) was 1 (2.9) n (%). For the same compound, the “Subjects with a TEAE, n (%)” value ([8]; fasted (n = 34), single 30-mg dose) was 9 (26.5%) n (%) and 9 (26.5) n (%), the “Number of TEAEs” value ([8]; fed (n = 30)) was 7 and the “Number of treatment‐related AEs” value ([8]; fed (n = 30)) was 4. For the same compound, the “Subjects with a treatment‐related AE, n (%)” value ([8]; fed (n = 30)) was 2 (6.7%) n (%) and 2 (6.7) n (%), the “Subjects with any TEAE … Mild, n (%)” value ([8]; fed (n = 30)) was 5 (16.7) n (%) and the “Subjects with any TEAE … Moderate, n (%)” value ([8]; fed (n = 30)) was 0 n (%). The “Subjects with any TEAE … Severe, n (%)” value ([8]; fed (n = 30)) was 0 n (%), the “Subjects with a TEAE, n (%)” value ([8]; fed (n = 30), single 30-mg dose) was 5 (16.7%) n (%) and 5 (16.7) n (%) and the “Number of TEAEs” value ([8]; overall (N = 64)) was 23. The “Number of treatment‐related AEs” value ([8]; overall (N = 64)) was 10, the “Subjects with a treatment‐related AE, n (%)” value ([8]; overall (N = 64)) was 6 (9.4%) n (%) and 6 (9.4) n (%) and the “Subjects with any TEAE … Mild, n (%)” value ([8]; overall (N = 64)) was 12 (18.8) n (%). The “Subjects with any TEAE … Moderate, n (%)” value ([8]; overall (N = 64)) was 1 (1.6) n (%), the “Subjects with any TEAE … Severe, n (%)” value ([8]; overall (N = 64)) was 1 (1.6) n (%) and the “Subjects with a TEAE, n (%)” value ([8]; overall (N = 64), single 30-mg dose) was 14 (21.9) n (%). For the same compound, the “serious AEs or discontinuations due to AEs” value ([8]; single 30-mg dose, fed and fasted) was “no discontinuations due to adverse events occurred; also recorded: no serious AEs or discontinuations due to AEs” and the “subjects with maximum change from baseline QTcF >30 milliseconds and ≤60 milliseconds” value ([8]; subject in the fasted group, percentage of N = 64) was 1 (1.6%) n (%).
